Key:
[1] = Acute Toxicity in Mice; conditions: mouse, in vivo
[2] = system: mice; test: Inhibition of Exploratory Behavior (Climbing) in mice; format: in vivo; conditions: Mus musculus, sc, 1 hr.
Description: (a) Inhibition of climbing in mice (inhibition of exploratory behavior). These tests have been described, and the importance of coordinating the compounds with these tests and the activities shown thereby is described in detail in the following literature: (a) Inhibition of Exploratory Behavior (Climbing) van Rossum, J.M., et al., in The Neuroleptics, Modern Problems of Pharmaco-[…], Vol. 5, […]., in Arch. Int. Pharmacodyn 126, 238 (1960). Sandberg, S., in Arzneimittelforschung 9, 203 (1958).

[3] = system: rats; test: Inhibition of Conditioned Avoidance Response in rats; format: in vivo; conditions: Rattus norvegicus, sc, 1.5 hrs.
Description: (b) Inhibition of conditioned behavior in rats. These tests have been described, and the importance of coordinating the compounds with these tests and the activities shown thereby is described in detail in the following literature: (b) Inhibition of Conditioned Avoidance Response "Neuroleptics characteristically interrupt the response to the warning stimulus (avoidance) without at the same time interrupting the response to the noxious stimulus (escape) which follows it." An introduction to Psycho-Pharmacology, Eds. Rech and Moore, New York, p. 264 (1971); Courvoisier, S., et al., in Arch. Int. Pharmacodyn. 92, 305 (1953); Jacobsen, E., in Psychotrophic Drugs, […], Amsterdam, p. 119 (1957). Jacobsen and Sonne, in Acta Pharmacol. et Toxicol. 11, pp. 135-147 (1955).

SMILES: Cc1ccc(C(=O)C2(O)CCN(CCCC(=O)c3ccc(F)cc3)CC2)cc1 [CH3, 1-[3-(p-fluorobenzoyl)propyl]-4-(p-methylbenzoyl)-4-hydroxypiperidine]
- LD50 at 48 h ([1]; po): > 1000 mg/kg
- LD50 at 48 h ([1]; sc): > 1000 mg/kg
- ED50 [2]: 0.8 mg/kg
- ED50 [3]: 0.32 mg/kg

SMILES: O=C(CCCN1CCC(O)(C(=O)c2ccc(Cl)cc2)CC1)c1ccc(F)cc1 [Cl, 1-[3-(p-fluorobenzoyl)propyl]-4-(p-chlorobenzoyl)-4-hydroxypiperidine]
- LD50 at 48 h ([1]; po): 630 mg/kg
- LD50 at 48 h ([1]; sc): > 1000 mg/kg
- ED50 [2]: 0.95 mg/kg
- ED50 [3]: 0.37 mg/kg

SMILES: Cl.O=C(CCCN1CCC(O)(C(=O)c2ccc(F)cc2)CC1)c1ccc(F)cc1 [F, 1-[3-(p-fluorobenzoyl)propyl]-4-(p-fluorobenzoyl)-4-hydroxypiperidine hydrochloride]
- LD50 at 48 h ([1]; po): 500 mg/kg
- LD50 at 48 h ([1]; sc): > 1000 mg/kg
- ED50 [2]: 0.19 mg/kg
- ED50 [3]: 0.13 mg/kg

SMILES: COc1ccc(C(=O)C2(O)CCN(CCCC(=O)c3ccc(F)cc3)CC2)cc1 [OCH3, 1-[3-(p-fluorobenzoyl)propyl]-4-(p-methoxybenzoyl)-4-hydroxypiperidine]
- LD50 at 48 h ([1]; po): 890 mg/kg
- LD50 at 48 h ([1]; sc): > 1000 mg/kg
- ED50 [2]: 1 mg/kg
- ED50 [3]: 0.24 mg/kg

From patent publication US4021564A, “Neuroleptic piperidine compounds” (AB Ferrosan, priority 1975, dated 1977)
